{
  "source": "patent US12076331B2",
  "about": "“Inositol derivatives for use in pathological crystallization” (ETH Zurich, priority 2015, dated 2024)",
  "test": "In-solution screening of CaP precipitation and aggregation in artificial renal tubular fluid (RTF)",
  "type": "physicochemical",
  "conditions": "9 mM phosphate, 8 mM calcium, 4 h",
  "protocol": "(§1) Effects of (A) OEG2-IP5, (B) OEG11-IP5, (C) (OEG2)2-IP4, (D) (OEG11)2-IP4 and (E) OEG8-(IP5)2. on CaP precipitation in RTF spiked with 9 mM disodium phosphate and 8 mM calcium chloride were assessed by light microscopy followed by automated image analysis at t=4 h. Quantification of the total area covered with CaP precipitates/total area field of view (N=3, mean+SD, normalized to the control).\nas §1, with “mean size of aggregates/field” for “total area covered with CaP precipitates/total area field”, “view normalized to the ctrl” for “view”\nOverview table showing the minimal concentration of compound (FIG. 3 for the chemical structures) required to achieve complete inhibition of CaP precipitation (total area covered with crystals <10% of total area control); and minimal concentration required to prevent CaP crystal aggregation in the CaP screening assay (CaP aggregate size <50% of aggregate size control) (N=3).\nAn artificial renal tubular fluid (RTF) with a final composition of 0.05 mM oxalate, 0.005 mM sulphate, 408 mM sodium, 424 mM chloride, 0.26 mM potassium, 4 mM magnesium and 0.2 mM citrate in double distilled water was prepared according to a literature report (Fasano, J. M. et al., Kidney Int. 59, 169-178. DOI: 10.1046/j. 1523-1755.2001.00477.x, 2001). The solution was filtered with a 0.45-μm syringe filter. Twenty mM Bis-Tris buffer was added to the reported protocol to ensure pH stability throughout experiments and pH was set to 7.2. The artificial RTF was stored at room temperature for up to four months. Stock solutions of 0.25 M phosphate and 1 M calcium were prepared in double distilled water and were stored separately at −20° C.\nTwenty-x final concentration phosphate, 20× final concentration calcium and 10× final concentration compound dilutions were prepared in RTF. Assay mixture consisting of 80% RTF, 10% compound dilution, 5% phosphate dilution and 5% calcium dilution was prepared in Eppendorf tubes as follows. RTF (320 μL) was mixed with 20 μL phosphate dilution (final concentration of 9 mM), 40 μL compound dilution and 20 μL calcium dilution (final concentration of 8 mM). The assay mixture was vortexed after adding each component and 380 μL of the mixture were immediately added to 8-well glass bottom slides and incubated for 4 hat RT. CaP precipitation was assessed using a Leica DM 6000B microscope (Leica Microsystems, Wetzlar, Germany) in brightfield mode. For quantification 3 wells/condition with 3-4 images/well were imaged with a 40× objective. The total area covered with CaP deposits in percentage of the field of view and the mean size of CaP aggregates were determined.\nIn a first step, the influence of selected IP6 analogues (FIG. 5) on CaP precipitation and growth was assessed in vitro using artificial renal tubular fluid (RTF) (Table 1). In a previous study, the inventors investigated CaP protein particle formation in serum. However, an important difference to cardiovascular calcification lies in the extremely low protein content of the renal tubular fluid vs. the high abundance of proteins in blood, which can stabilize amorphous particles. Two cut-offs were chosen for assessing efficacy. First, complete inhibition was defined as a >90% reduction of detected CaP precipitates compared to the control sample without compound. Second, inhibition of CaP aggregation was defined as a >50% reduction of the mean size of aggregates when compared to the control.",
  "data": [
    {"smiles": "COCCOCCO[C@@H]1C(OP(=O)(O)O)[C@H](OCCOCCOC)[C@@H](OP(=O)(O)O)C(OP(=O)(O)O)[C@H]1OP(=O)(O)O", "note": "(stereo partly shown) [(OEG2)2-IP4]", "values": [
      {"measurement": "effect on CaP precipitation/crystallization in words", "result": "did not further increase the inhibitory activity"}
    ]}
  ]
}
